According to patent US10258639B2, “Methods for treating insulin resistance and for sensitizing patients to GLP1 agonist therapy” (Research Development Foundation, priority 2014, dated 2019):

Tested on: INS1 cells
Assay: RNAseq of INS1 cells grown in chronic high glucose compared to controls and stimulated with FSK (Table 2)
Type: cell-based, rat
Details: Low glucose
Protocol: INS-1 insulinoma cells were cultured in RPMI (corning cellgro) containing 10% fetal bovine serum (Gemini Bio Products), 100 μg/mL penicillin-streptomycin and 1 mM sodium pyruvate (corning cellgro). MIN6 cells were grown in DMEM (corning cellgro) with 10% FBS, 100 μg/mL penicillin-streptomycin and 70 uM beta-mercaptoethanol. For chronic glucose experiments, cells were maintained under low (2.8 mM) or high (20 mM) glucose for 3 days. Exendin-4 (10 nM), Forskolin (10 μM), KCl (40 mM), DMOG (1 mM) and rapamycin (50 nM) were added to cells as indicated. Cellular cAMP levels were measured using an ELISA kit (Cayman Chemical Company) according to manufacturer's instructions. Total RNAs from cells or primary islets were extracted using Trizol and cDNA was generated using the Transcriptor First Strand cDNA Synthesis kit (Roche Applied Science). cDNAs were quantified on a lightcycler 480 instrument (Roche Applied Science). Gene expression data were presented relative to the expression of housekeeping gene L32 (rat samples) and 18S (mouse and human islets). RNA-Seq libraries were prepared using the mRNA isolation protocol and the NEBNext-Ultra kits from New England Biolabs following the manufacturer's protocols. Libraries were quantitated by Qubit (Invitrogen), and run on a MiSeq instrument with paired-end 75 bp reads using v3 chemistry (Illumina) Data were analyzed by tophat2 and cuffdiff against the mouse mm10 genome build. The GEO accession number for RNAseq studies reported in the paper is GSE60158.

## C=C[C@@]1(C)CC(=O)[C@]2(O)[C@@]3(C)[C@@H](O)CCC(C)(C)[C@@H]3[C@H](O)[C@H](OC(C)=O)[C@@]2(C)O1 [FSK, Forskolin]
FSK
  Agt RNAseq value: 5.2
  Ahi1 RNAseq value: 32.6
  Bhlha15 RNAseq value: 63.9
  Btg3 RNAseq value: 145.9
  Bysl RNAseq value: 56.1
  Canx RNAseq value: 241.6
  Ccni RNAseq value: 242.1
  Chd1 RNAseq value: 20.8
  Chrne RNAseq value: 0.2
  Ctf1 RNAseq value: 0.2
  Cxcl2 RNAseq value: 1.0
  Cyth3 RNAseq value: 30.7
  Dkc1 RNAseq value: 87.8
  Epha3 RNAseq value: 0.1
  Epor RNAseq value: 0.2
  Fam49a RNAseq value: 0.2
  Ficd RNAseq value: 89.9
  Fmc1 RNAseq value: 26.0
  Fn1 RNAseq value: 852.9
  Gabre RNAseq value: 0.1
  Gars RNAseq value: 439.6
  Ggt5 RNAseq value: 0.3
  Gnl3 RNAseq value: 31.0
  Gnmt RNAseq value: 0.4
  Gzmm RNAseq value: 0.4
  Hmcn1 RNAseq value: 0.0
  Hmga2 RNAseq value: 0.5
  Hnrnpa1 RNAseq value: 34.2
  Hnrpdl RNAseq value: 160.1
  Hs3st2 RNAseq value: 0.6
  Hspa4 RNAseq value: 138.6
  Hspd1 RNAseq value: 47.6
  Icam2 RNAseq value: 0.2
  Il13ra1 RNAseq value: 0.3
  Il28ra RNAseq value: 10.0
  Kcnb1 RNAseq value: 48.7
  Kcnj13 RNAseq value: 1.4
  Kdm1b RNAseq value: 9.1
  Kif9 RNAseq value: 0.3
  LOC683722 RNAseq value: 12.3
  LOC686295 RNAseq value: 4.9
  LOC689959 RNAseq value: 17.9
  Lrfn5 RNAseq value: 0.1
  Map3k4 RNAseq value: 25.4
  Mef2d RNAseq value: 146.0
  Megf10 RNAseq value: 0.1
  Msn RNAseq value: 1.2
  Myof RNAseq value: 0.0
  Nckap1l RNAseq value: 0.2
  Nkx2-2 RNAseq value: 192.1
  Nolc1 RNAseq value: 183.8
  Notch4 RNAseq value: 0.9
  Ormdl3 RNAseq value: 286.8
  Otop3 RNAseq value: 0.1
  Pabpc6 RNAseq value: 0.1
  Pde3b RNAseq value: 103.8
  Pde4dip RNAseq value: 61.8
  Pdrg1 RNAseq value: 43.4
  Plcb2 RNAseq value: 0.1
  RGD1309079 RNAseq value: 1.1
  RGD1311084 RNAseq value: 0.2
  Rab3gap2 RNAseq value: 53.1
  Rab11fip1 RNAseq value: 11.0
  Rap2a RNAseq value: 13.5
  Rho RNAseq value: 0.2
  Rpl7a RNAseq value: 0.4
  Rpl17 RNAseq value: 117.5
  Rrs1 RNAseq value: 38.4
  Sgce RNAseq value: 0.2
  Smad1 RNAseq value: 48.4
  Smad3 RNAseq value: 5.7
  Snapc1 RNAseq value: 4.6
  Sncaip RNAseq value: 7.4
  Spon2 RNAseq value: 0.7
  Srp54 RNAseq value: 40.0
  Stard8 RNAseq value: 0.3
  Syp RNAseq value: 744.1
  T2 RNAseq value: 0.2
  Taf1a RNAseq value: 9.0
  Tex38 RNAseq value: 0.5
  Tmem114 RNAseq value: 0.2
  Tomm20 RNAseq value: 90.1
  Tpp2 RNAseq value: 12.0
  Twistnb RNAseq value: 8.1
  Usp9x RNAseq value: 56.0
  Vps37b RNAseq value: 52.0
  Zfp830 RNAseq value: 20.4
  Zfp385d RNAseq value: 0.2
FSK/control
  Accsl Fold: 2.0
  Acpt Fold: 2.0
  Acsl4 Fold: 2.0
  Agt Fold: 2.0
  Ahi1 Fold: 2.0
  Bhlha15 Fold: 2.0
  Btg3 Fold: 2.0
  Bysl Fold: 2.0
  Canx Fold: 2.0
  Ccni Fold: 2.0
  Chd1 Fold: 2.0
  Chrne Fold: 2.0
  Ctf1 Fold: 2.0
  Cxcl2 Fold: 2.0
  Cyth3 Fold: 2.0
  Dkc1 Fold: 2.0
  Epha3 Fold: 2.0
  Epor Fold: 2.0
  Fam49a Fold: 2.0
  Ficd Fold: 2.0
  Fmc1 Fold: 2.0
  Fn1 Fold: 2.0
  Gabre Fold: 2.0
  Gars Fold: 2.0
  Ggt5 Fold: 2.0
  Gnl3 Fold: 2.0
  Gnmt Fold: 2.0
  Gzmm Fold: 2.0
  Hmcn1 Fold: 2.0
  Hmga2 Fold: 2.0
  Hnrnpa1 Fold: 2.0
  Hnrpdl Fold: 2.0
  Hs3st2 Fold: 2.0
  Hspa4 Fold: 2.0
  Hspd1 Fold: 2.0
  Icam2 Fold: 2.0
  Il13ra1 Fold: 2.0
  Il28ra Fold: 2.0
  Kcnb1 Fold: 2.0
  Kcnj13 Fold: 2.0
  Kdm1b Fold: 2.0
  Kif9 Fold: 2.0
  LOC683722 Fold: 2.0
  LOC686295 Fold: 2.0
  LOC689959 Fold: 2.0
  Lrfn5 Fold: 2.0
  Map3k4 Fold: 2.0
  Mef2d Fold: 2.0
  Megf10 Fold: 2.0
  Msn Fold: 2.0
  Myof Fold: 2.0
  Nckap1l Fold: 2.0
  Nkx2-2 Fold: 2.0
  Nolc1 Fold: 2.0
  Notch4 Fold: 2.0
  Ormdl3 Fold: 2.0
  Otop3 Fold: 2.0
  Pabpc6 Fold: 2.0
  Pde3b Fold: 2.0
  Pde4dip Fold: 2.0
  Pdrg1 Fold: 2.0
  Plcb2 Fold: 2.0
  RGD1309079 Fold: 2.0
  RGD1311084 Fold: 2.0
  Rab3gap2 Fold: 2.0
  Rab11fip1 Fold: 2.0
  Rap2a Fold: 2.0
  Rho Fold: 2.0
  Rpl7a Fold: 2.0
  Rpl17 Fold: 2.0
  Rrs1 Fold: 2.0
  Sgce Fold: 2.0
  Smad1 Fold: 2.0
  Smad3 Fold: 2.0
  Snapc1 Fold: 2.0
  Sncaip Fold: 2.0
  Spon2 Fold: 2.0
  Srp54 Fold: 2.0
  Stard8 Fold: 2.0
  Syp Fold: 2.0
  T2 Fold: 2.0
  Taf1a Fold: 2.0
  Tex38 Fold: 2.0
  Tmem114 Fold: 2.0
  Tomm20 Fold: 2.0
  Tpp2 Fold: 2.0
  Twistnb Fold: 2.0
  Usp9x Fold: 2.0
  Vps37b Fold: 2.0
  Zfp830 Fold: 2.0
  Zfp385d Fold: 2.0
